Molecular target: PAR4 (Homo sapiens (Human), UniProt Q96RI0)
Test: FLIPR assay in PAR4-expressing HEK293 cells (PAR4 antagonist activity)
Assay type: cell-based
Conditions: H-Ala-Phe(4-F)-Pro-Gly-Trp-Leu-Val-Lys-Asn-Gly-NH2-induced intracellular calcium mobilization, 11-point curves
Text: The FLIPR assay is an exemplary in vitro assay for measuring the activity of the PAR4 antagonists of the present invention. In this assay, intracellular calcium mobilization is induced in PAR4 expressing cells by a PAR4 agonist and calcium mobilization is monitored. See, e.g., Example A.
HEK293 cells stably expressing PAR4 were generated by a standard method of transfection of human […] cDNA expression vector or by RAGE technology from Athersys Inc. (Cleveland, Ohio) and selected based on PAR4 protein expression of mRNA expression. […] These cells express endogenous PAR1 and can elicit calcium signal upon stimulation with PAR1 agonist peptide. Cells were grown in Dulbecco's Modified Eagle's Medium (DMEM) (Invitrogen, Carlsbad, Calif.), 10% FBS, 1% PSG, 3 μg/ml puromycin and 25 nM Methotrexate) at 37° C. with 5% CO2.
FLIPR-based calcium mobilization assay in HEK293 cells was used to measure PAR4 antagonism, agonism, and selectivity against PAR1. […] Counter screens for agonist activity and PAR1 antagonist activity were also performed. Briefly, PAR1/PAR4-expressing HEK293 cells were grown in DMEM (Life Technology, Grand Island, N.Y.) containing 10% heat-inactivated FBS, 1% Penicillin-Streptomycin, 10 μg/mL blasticidin, and 100 μg/mL Zeocin at 37° C. with 5% CO2. Cells were plated overnight prior to the experiment in a black 384-well Purecoat Amine clear bottom plate (Becton Dickinson Biosciences, San Jose, Calif.) at 10,000 cells/well in 30 μL growth medium and incubated in a humidified chamber at 37° C. with 5% CO2 overnight. Prior to compound addition, the cell medium was replaced with 40 μL of 1× calcium and magnesium-containing Hank's Balanced Saline Solution (HBSS) (with 20 mM HEPES) and 1:1000 diluted fluorescent calcium indicator (Codex Biosolutions, Gaithersburg, Md.). After a 30 minute incubation period at 37° C. and a further 30 minute incubation and equilibration period at room temperature, 20 μL test compound (diluted in 1×HBSS buffer) was added at various concentrations at 0.17% dimethyl sulfoxide (DMSO) final concentration. Changes in fluorescence intensity were measured using a Functional Drug Screening System (FDSS, Hamamatsu, Japan) to determine agonist activities. The cells were then incubated for 30 minutes at room temperature followed by addition of 20 μL of agonist peptide for antagonist activity measurement. […] Compound potency was derived from 11-point concentration-response curves.
As indicated above, the FLIPR assay, an in vitro assay, measures the PAR4 antagonist activity of compounds tested as described in Example A.

Chain of PAR4 (Q96RI0 18-385): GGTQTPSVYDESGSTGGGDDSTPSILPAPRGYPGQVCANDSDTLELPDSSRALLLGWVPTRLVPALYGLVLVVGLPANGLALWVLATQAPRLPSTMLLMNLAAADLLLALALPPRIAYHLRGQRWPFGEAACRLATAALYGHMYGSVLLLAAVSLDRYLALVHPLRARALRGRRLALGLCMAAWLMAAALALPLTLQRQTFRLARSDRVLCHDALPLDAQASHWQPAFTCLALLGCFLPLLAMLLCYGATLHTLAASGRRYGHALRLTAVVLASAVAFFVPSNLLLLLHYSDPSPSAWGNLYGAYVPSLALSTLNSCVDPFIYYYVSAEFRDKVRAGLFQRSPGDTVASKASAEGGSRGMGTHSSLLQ

Point of comparison: `COc1cc(OCC2CCCN(c3ccc4c(c3)OCO4)C2)c2cc(-c3cn4nc(OC)sc4n3)oc2c1` (stereo not drawn) [Example 38], IC50 540 nM. Against it:
- COc1cc(OC[C@@H]2CCCN2c2ccc(C#N)cc2)c2cc(-c3cn4nc(OC)sc4n3)oc2c1 [Example 16] — within 1.5-fold, 500 nM
- COc1ccc(N2CCC[C@H]2COc2cc(OC)cc3oc(-c4cn5nc(OC)sc5n4)cc23)cc1 [Example 17] — 1.9-fold lower, 290 nM
- COc1cc(OC[C@@H]2CCCN2c2ccc(F)cc2)c2cc(-c3cn4nc(OC)sc4n3)oc2c1 [Example 18] — within 1.5-fold, 470 nM
- COc1cccc(N2CCC[C@H]2COc2cc(OC)cc3oc(-c4cn5nc(OC)sc5n4)cc23)c1 [Example 19] — within 1.5-fold, 460 nM
- COc1ccc(N2CCC[C@H]2COc2cc(OC)cc3oc(-c4cn5nc(OC)sc5n4)cc23)nc1 [Example 20] — within 1.5-fold, 710 nM
- COc1cc(OC[C@@H]2CCCN2c2ccc3c(c2)OCO3)c2cc(-c3cn4nc(OC)sc4n3)oc2c1 [Example 21] — the same, 540 nM
- COc1cc(OC[C@@H]2CCCN2c2ccc(C(F)(F)F)cc2)c2cc(-c3cn4nc(OC)sc4n3)oc2c1 [Example 22] — within 1.5-fold, 440 nM
- COc1cc(OC[C@@H]2CCCN2c2ccc(OC(F)(F)F)cc2)c2cc(-c3cn4nc(OC)sc4n3)oc2c1 [Example 23] — within 1.5-fold, 600 nM
- COc1cc(OC[C@@H]2CCCN2c2ccc(C)cc2)c2cc(-c3cn4nc(OC)sc4n3)oc2c1 [Example 24] — 1.8-fold higher, 950 nM
- COc1cc(OC[C@@H]2CCN(c3ccc(Cl)cc3)C2)c2cc(-c3cn4nc(OC)sc4n3)oc2c1 [Example 25] — within 1.5-fold, 790 nM
- COc1ccc(N2CC[C@@H](COc3cc(OC)cc4oc(-c5cn6nc(OC)sc6n5)cc34)C2)cc1 [Example 26] — 2.6-fold higher, 1400 nM
- COc1cc(OCC2CN(c3ccc(F)cc3)C2)c2cc(-c3cn4nc(OC)sc4n3)oc2c1 [Example 27] — 4.3-fold higher, 2300 nM
- COc1cc(OC[C@@H]2CCCN(c3ccc(C#N)cc3)C2)c2cc(-c3cn4nc(OC)sc4n3)oc2c1 [Example 28] — 3.3-fold higher, 1800 nM
- CCOC(=O)c1ccc(N2CCC[C@@H](COc3cc(OC)cc4oc(-c5cn6nc(OC)sc6n5)cc34)C2)cc1 [Example 29] — 1.8-fold higher, 950 nM
- COc1cc(OC[C@H]2CCCN(c3ccc(C#N)cc3)C2)c2cc(-c3cn4nc(OC)sc4n3)oc2c1 [Example 30] — 1.6-fold higher, 860 nM
- CCOC(=O)c1ccc(N2CCC[C@H](COc3cc(OC)cc4oc(-c5cn6nc(OC)sc6n5)cc34)C2)cc1 [Example 31] — 1.6-fold higher, 890 nM
- COc1ccc(N2CCCC(COc3cc(OC)cc4oc(-c5cn6nc(OC)sc6n5)cc34)C2)nc1 (stereo not drawn) [Example 32] — 5.2-fold higher, 2800 nM
- COc1cc(OCC2CCCN(c3ccc(Cl)cc3)C2)c2cc(-c3cn4nc(OC)sc4n3)oc2c1 (stereo not drawn) [Example 33] — within 1.5-fold, 440 nM
- COc1cc(OC[C@@H]2CCCN(c3ccc(Cl)cc3)C2)c2cc(-c3cn4nc(OC)sc4n3)oc2c1 [Example 34] — within 1.5-fold, 700 nM
- COc1cc(OC[C@H]2CCCN(c3ccc(Cl)cc3)C2)c2cc(-c3cn4nc(OC)sc4n3)oc2c1 [Example 35] — 1.6-fold higher, 840 nM
- COc1ccc(N2CCCC(COc3cc(OC)cc4oc(-c5cn6nc(OC)sc6n5)cc34)C2)cc1 (stereo not drawn) [Example 36] — within 1.5-fold, 750 nM
- COc1cc(OCC2CCCN(c3ncc(F)cc3F)C2)c2cc(-c3cn4nc(OC)sc4n3)oc2c1 (stereo not drawn) [Example 37] — within 1.5-fold, 560 nM
- COc1cc(OCC2CCCN(c3ccc(C(F)(F)F)cc3)C2)c2cc(-c3cn4nc(OC)sc4n3)oc2c1 (stereo not drawn) [Example 39] — within 1.5-fold, 510 nM
- COc1cc(OCC2CCCN(c3ccc(C#N)cc3)C2)c2cc(-c3cn4nc(OC)sc4n3)oc2c1 (stereo not drawn) [Example 40] — 2.4-fold higher, 1300 nM
- CCOC(=O)c1ccc(N2CCCC(COc3cc(OC)cc4oc(-c5cn6nc(OC)sc6n5)cc34)C2)cc1 (stereo not drawn) [Example 41] — 3.9-fold higher, 2100 nM
- COc1ccc(N2CCCC(COc3cc(OC)cc4oc(-c5cn6nc(OC)sc6n5)cc34)C2)c(OC)c1 (stereo not drawn) [Example 42] — 2-fold higher, 1100 nM
- COc1cc(OCC2CCCN(c3cc(C#N)ccn3)C2)c2cc(-c3cn4nc(OC)sc4n3)oc2c1 (stereo not drawn) [Example 43] — within 1.5-fold, 480 nM
- COc1cc(OC[C@@H]2CCCN(c3ccc(C#N)cn3)C2)c2cc(-c3cn4nc(OC)sc4n3)oc2c1 [Example 44] — within 1.5-fold, 750 nM
- CCOC(=O)c1ccc(N2CCCCC2COc2cc(OC)cc3oc(-c4cn5nc(OC)sc5n4)cc23)cc1 (stereo not drawn) [Example 45] — within 1.5-fold, 370 nM
- COc1cc(OCC2CCCCN2c2ccc(C#N)cc2)c2cc(-c3cn4nc(OC)sc4n3)oc2c1 (stereo not drawn) [Example 46] — 2.2-fold lower, 240 nM
- CCOC(=O)c1ccc(N2CCC(COc3cc(OC)cc4oc(-c5cn6nc(OC)sc6n5)cc34)CC2)cc1 [Example 47] — 1.9-fold higher, 1000 nM
- COc1cc(OCC2CCN(c3ccc(C#N)cc3)CC2)c2cc(-c3cn4nc(OC)sc4n3)oc2c1 [Example 48] — 2-fold higher, 1100 nM
- COc1cc(OCC2CCN(c3ccc(Cl)cc3)CC2)c2cc(-c3cn4nc(OC)sc4n3)oc2c1 [Example 49] — 5-fold higher, 2700 nM
- COc1cc(OCC2CCN(c3ccc(F)cc3)CC2)c2cc(-c3cn4nc(OC)sc4n3)oc2c1 [Example 50] — 8.9-fold higher, 4800 nM
- COc1cc(OCC2CCN(c3ccccc3)CC2)c2cc(-c3cn4nc(OC)sc4n3)oc2c1 [Example 51] — 9.3-fold higher, 5000 nM
- COc1cc(OC[C@H]2CCCN(c3ccc(F)cc3)C2)c2cc(-c3cn4nc(OC)sc4n3)oc2c1 [Example 52] — 2-fold higher, 1100 nM
- COc1cc(OC[C@@H]2CCCN(c3ccccc3)C2)c2cc(-c3cn4nc(OC)sc4n3)oc2c1 [Example 53] — 3.3-fold higher, 1800 nM
- COc1cc(OC[C@H]2CCCN(c3ccccc3)C2)c2cc(-c3cn4nc(OC)sc4n3)oc2c1 [Example 54] — 2.6-fold higher, 1400 nM
- COc1cc(OCC2CCCCN2c2ccc(Cl)cc2)c2cc(-c3cn4nc(OC)sc4n3)oc2c1 (stereo not drawn) [Example 55] — within 1.5-fold, 720 nM
- COc1cc(OCC2CCCCN2c2ccc(Cl)cc2)c2cc(-c3cn4nc(OC)sc4n3)oc2c1 (stereo not drawn) [Example 57] — within 1.5-fold, 740 nM
- COc1cc(OC[C@H]2CCCN(Cc3ccc(Cl)cc3)C2)c2cc(-c3cn4nc(OC)sc4n3)oc2c1 [Example 58] — 2.6-fold higher, 1400 nM
- COc1cc(OC[C@H]2CCCN(C(=O)OCc3ccccc3)C2)c2cc(-c3cn4nc(OC)sc4n3)oc2c1 [Example 59] — 2.2-fold higher, 1200 nM
- COc1cc(OCC2CCCN(c3nncs3)C2)c2cc(-c3cn4nc(OC)sc4n3)oc2c1 (stereo not drawn) [Example 60] — 5-fold higher, 2700 nM
- CCOC(=O)c1cnc(N2CCCC(COc3cc(OC)cc4oc(-c5cn6nc(OC)sc6n5)cc34)C2)s1 (stereo not drawn) [Example 61] — 2.8-fold higher, 1500 nM
- COc1cc(OCC2CCCN(c3ncc(Br)s3)C2)c2cc(-c3cn4nc(OC)sc4n3)oc2c1 (stereo not drawn) [Example 62] — 3.5-fold higher, 1900 nM
- COc1cc(OCC2CCCN(c3ccc(Cl)cn3)C2)c2cc(-c3cn4nc(OC)sc4n3)oc2c1 (stereo not drawn) [Example 63] — 1.6-fold higher, 860 nM
- COc1cc(OCC2CCCN(c3ccc(Cl)cn3)C2)c2cc(-c3cn4nc(OC)sc4n3)oc2c1 (stereo not drawn) [Example 64] — 1.5-fold higher, 820 nM
- COc1cc(OCC2CCCN(c3ncc(Br)cn3)C2)c2cc(-c3cn4nc(OC)sc4n3)oc2c1 (stereo not drawn) [Example 66] — 2.6-fold higher, 1400 nM
- COc1cc(OCC2CCC(=O)N(c3ccc(Cl)cc3)C2)c2cc(-c3cn4nc(OC)sc4n3)oc2c1 (stereo not drawn) [Example 67] — 6.1-fold higher, 3300 nM
- COc1cc(OCC2CCCN(c3ccc(NC(=O)OC(C)(C)C)cc3)C2)c2cc(-c3cn4nc(OC)sc4n3)oc2c1 (stereo not drawn) [Example 68] — 3.9-fold higher, 2100 nM
- COc1cc(OCC2CCCN(c3ccc(NC(=O)OC(C)(C)C)nc3)C2)c2cc(-c3cn4nc(OC)sc4n3)oc2c1 (stereo not drawn) [Example 69] — 5.9-fold higher, 3200 nM
- COc1ccc(COc2ccc(N3CCCC(COc4cc(OC)cc5oc(-c6cn7nc(OC)sc7n6)cc45)C3)cc2)cc1 (stereo not drawn) [Example 70] — 6.5-fold higher, 3500 nM
- COc1cc(OCC2CCCN(c3ccc(NC(=O)C(F)(F)F)nc3)C2)c2cc(-c3cn4nc(OC)sc4n3)oc2c1 (stereo not drawn) [Example 71] — 2.4-fold higher, 1300 nM
- COc1cc(OC[C@@H]2CCCN(c3ccc(F)cc3)C2)c2cc(-c3cn4nc(OC)sc4n3)oc2c1 [Example 72] — 2.6-fold higher, 1400 nM
- COc1cc(OCC2CCCN(C3CCOCC3)C2)c2cc(-c3cn4nc(OC)sc4n3)oc2c1 (stereo not drawn) [Example 73] — 87-fold higher, 47000 nM
- COc1cc(OCC2CCCN(c3ccc(N)nc3)C2)c2cc(-c3cn4nc(OC)sc4n3)oc2c1 (stereo not drawn) [Example 74] — 52-fold higher, 28000 nM

Source: patent US10329307B2, “Heterocyclic compounds as inhibitors of platelet aggregation” (UNIVERSITE DE MONTREAL, priority 2015, dated 2019)
